This is an account of results in ChEMBL document CHEMBL3864158, “Syntheses, cytotoxic activity evaluation and HQSAR study of 1,2,3-triazole-linked isosteviol derivatives as potential anticancer agents” (Bioorg Med Chem Lett, 2016).

Broadly, the IC50 is the midpoint of a concentration-inhibition curve.

A short description of test [1]: Cytotoxicity against human HCT116 cells assessed as decrease in cell proliferation after 72 hrs by MTT assay. The note with it: HCT-116, 72 h. The class given is functional, cell-based. (In general: Formazan colour is commonly taken as a measure of viable cells.)
Test [2] can be described thus: Cytotoxicity against human JeKo1 cells assessed as decrease in cell proliferation after 72 hrs by MTT assay. The class given is functional, cell-based. The note with it: JeKo-1, 72 h.

Consider `CCOC(=O)[C@]1(C)CCC[C@@]2(C)[C@@H]3CC[C@@]4(C)C[C@]3(CC[C@@H]21)[C@H](Cn1cc(CO)nn1)[C@H]4O`, for which the IC50 turned out to be 19.6 µM in test [1] and 32.3 µM in test [2].

As to `CCOC(=O)[C@]1(C)CCC[C@@]2(C)[C@@H]3CC[C@@]4(C)C[C@]3(CC[C@@H]21)[C@H](Cn1cc(COc2ccccc2C=O)nn1)[C@H]4O`, the half-maximal inhibitory concentration (IC50) in test [1] was 2.99 µM; in test [2], 12.7 µM.

Turning to `CCOC(=O)[C@]1(C)CCC[C@@]2(C)[C@@H]3CC[C@@]4(C)C[C@]3(CC[C@@H]21)C[C@@H]4n1cc(COc2ccccc2C=O)nn1`, the IC50 amounted to 3.8 µM in test [1] and 12.2 µM in test [2].

For `CCOC(=O)[C@]1(C)CCC[C@@]2(C)[C@@H]3CC[C@@]4(C)C[C@]3(CC[C@@H]21)C[C@@H]4n1cc(COc2cccc(C=O)c2)nn1`, the IC50 in test [1] turned out to be 6.5 µM; in test [2], 9.5 µM.

`CC(=O)O[C@@H]1O[C@H](n2cc(COC(=O)[C@]3(C)CCC[C@@]4(C)[C@H]5CC[C@@]6(C)C[C@]5(CC[C@@H]43)CC6=O)nn2)[C@@H](OC(C)=O)[C@@H](OC(C)=O)[C@H]1OC(C)=O`: the values for the half-inhibitory concentration (IC50) in test [1] and in test [2] were 19.3 µM and 26.3 µM, respectively.

With `CCOC(=O)[C@]1(C)CCC[C@@]2(C)[C@@H]3CC[C@@]4(C)C[C@]3(CC[C@@H]21)[C@H](Cn1cc(-c2ccccc2)nn1)[C@H]4O`, the IC50 in test [1] turned out to be 8.57 µM; in test [2], 18.8 µM.

As for `C#CCOC(=O)[C@]1(C)CCC[C@@]2(C)[C@@H]3CC[C@@]4(C)C[C@]3(CC[C@@H]21)CC4=O`, the values for the IC50 in test [1] and in test [2] were 27.1 µM and 24.7 µM, respectively.

For `CCOC(=O)[C@]1(C)CCC[C@@]2(C)[C@@H]3CC[C@@]4(C)C[C@]3(CC[C@@H]21)C[C@@H]4n1cc(COc2ccc(C=O)cc2OC)nn1`, the IC50 in test [1] worked out at 7.18 µM; in test [2] it was 10.9 µM.

As to `CCOC(=O)[C@]1(C)CCC[C@@]2(C)[C@@H]3CC[C@@]4(C)C[C@]3(CC[C@@H]21)C[C@@H]4n1cc(-c2ccccc2)nn1`, the IC50 stood at 48.4 µM in test [1] and 95.9 µM in test [2].

For the compound `CCOC(=O)[C@]1(C)CCC[C@@]2(C)[C@@H]3CC[C@@]4(C)C[C@]3(CC[C@@H]21)C[C@H]4n1cc(COC(=O)[C@]2(C)CCC[C@@]3(C)[C@@H]4CC[C@@]5(C)C[C@]4(CC[C@@H]32)CC5=O)nn1`, the IC50 in test [1] was determined as 126 µM; in test [2], 15.3 µM.

Regarding `CCOC(=O)[C@]1(C)CCC[C@@]2(C)[C@@H]3CC[C@@]4(C)C[C@]3(CC[C@@H]21)C[C@@H]4n1cc(COc2ccc(C(=O)O)cc2)nn1`, the half-inhibitory concentration (IC50) is 11.8 µM in test [1] and 54.4 µM in test [2].

Take `CCOC(=O)[C@]1(C)CCC[C@@]2(C)[C@@H]3CC[C@@]4(C)C[C@]3(CC[C@@H]21)[C@H](Cn1cc(COc2ccc(C=O)cc2)nn1)[C@H]4O`: the IC50 in test [1] is 6.62 µM; in test [2], 16.4 µM.

Regarding `CCOC(=O)[C@]1(C)CCC[C@@]2(C)[C@@H]3CC[C@@]4(C)C[C@]3(CC[C@@H]21)[C@H](CN=[N+]=[N-])[C@H]4O`, the IC50 is 14.8 µM in test [1] and 31.2 µM in test [2].

Consider `CCOC(=O)[C@]1(C)CCC[C@@]2(C)[C@@H]3CC[C@@]4(C)C[C@]3(CC[C@@H]21)C[C@@H]4n1cc(COc2ccc(C(C)=O)cc2)nn1`, for which the IC50 in test [1] was 9.62 µM; in test [2] it was 13.9 µM.

In the case of `CCOC(=O)[C@]1(C)CCC[C@@]2(C)[C@@H]3CC[C@@]4(C)C[C@]3(CC[C@@H]21)[C@H](Cn1cc(COc2cccc(C=O)c2)nn1)[C@H]4O`, the figures for the IC50 in test [1] and in test [2] were 4.64 µM and 15.6 µM, respectively.

Turning to `CCOC(=O)[C@]1(C)CCC[C@@]2(C)[C@@H]3CC[C@@]4(C)C[C@]3(CC[C@@H]21)C[C@@H]4N=[N+]=[N-]`, the results for the IC50 in test [1] and in test [2] were 46.1 µM and 55.2 µM, respectively.

Regarding `C[C@@]12CC[C@@H]3[C@@](CC[C@H]4[C@@]3(C)CCC[C@@]4(C)C(=O)O)(CC1=O)C2` [ISOSTEVIOL], the IC50 in test [1] and in test [2] was more than 150 µM in each case.

Regarding `CCOC(=O)[C@]1(C)CCC[C@@]2(C)[C@@H]3CC[C@@]4(C)C[C@]3(CC[C@@H]21)[C@H](Cn1cc(COc2ccc(C(C)=O)cc2)nn1)[C@H]4O`, the IC50 worked out at 8.15 µM in test [1] and 19.6 µM in test [2].

On to `CCOC(=O)[C@]1(C)CCC[C@@]2(C)[C@@H]3CC[C@@]4(C)C[C@]3(CC[C@@H]21)C[C@H]4OS(=O)(=O)c1ccc(C)cc1`, for which the concentration for half-maximal inhibition (IC50) in test [1] was 51.4 µM; in test [2] it was 9.75 µM.

For the compound `CCOC(=O)[C@]1(C)CCC[C@@]2(C)[C@@H]3CC[C@@]4(C)C[C@]3(CC[C@@H]21)C[C@@H]4n1cc(COc2ccc(C=O)cc2)nn1`, the IC50 was determined as 8.2 µM in test [1] and 11.7 µM in test [2].

For the compound `CCOC(=O)[C@]1(C)CCC[C@@]2(C)[C@@H]3CC[C@@]4(C)C[C@]3(CC[C@@H]21)[C@H](Cn1cc(COc2ccc(C=O)cc2OC)nn1)[C@H]4O`, the values for the IC50 in test [1] and in test [2] were 4.04 µM and 7.09 µM, respectively.
